The text below walks through data of patent US20200131180A1, “POSITIVE ALLOSTERIC MODULATORS OF THE MUSCARINIC ACETYLCHOLINE RECEPTOR M1” (Vanderbilt University, priority 2018, published 2020).

The target of the test is T1, human mAChR M1 (Homo sapiens, UniProt P11229).
T1 sequence (P11229 1-460): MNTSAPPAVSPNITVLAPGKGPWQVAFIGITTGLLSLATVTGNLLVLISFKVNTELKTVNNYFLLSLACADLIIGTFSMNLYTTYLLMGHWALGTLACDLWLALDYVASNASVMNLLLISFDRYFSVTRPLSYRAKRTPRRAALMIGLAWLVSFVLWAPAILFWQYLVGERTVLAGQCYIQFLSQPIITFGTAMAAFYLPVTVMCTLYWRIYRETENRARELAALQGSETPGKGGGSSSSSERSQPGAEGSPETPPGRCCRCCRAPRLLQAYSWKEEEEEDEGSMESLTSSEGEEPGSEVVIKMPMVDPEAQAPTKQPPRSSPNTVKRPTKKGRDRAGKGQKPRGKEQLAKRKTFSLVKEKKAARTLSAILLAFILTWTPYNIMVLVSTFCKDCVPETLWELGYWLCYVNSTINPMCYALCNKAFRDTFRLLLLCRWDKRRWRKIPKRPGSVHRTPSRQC
The test is described as follows: mAChR M1 cell-based functional assay (calcium mobilization, PAM activity). Conditions: CHO-K1 cells expressing hM1, calcium flux (Fluo-4); for EC50: concentration-dependent increase in the EC20 acetylcholine response; for Emax: potentiation of EC20 acetylcholine response. An excerpt: Chinese hamster ovary (CHO-K1) cells stably expressing rat (r)M1 were purchased from the American Type Culture Collection and cultured according to their indicated protocol. CHO cells stably expressing human (h)M2, hM3, and hM5 were described previously (Levey, et al., 1991); hM1 and hM4 cDNAs were purchased from Missouri S&T cDNA Resource; rM4 cDNA was provided by T. I. Bonner (National Institutes of Health, Bethesda, Md.). rM2 and rM3 were cloned from a rat brain cDNA library and sequence verified. hM1, rM2, rM3, hM4, and rM4 cDNAs were used to stably transfect CHO-K1 cells purchased from the American Type Culture Collection using Lipofectamine 2000. To make stable rM2, hM2, rM3, hM4, and rM4 cell lines for use in calcium mobilization assays, these cells also were stably transfected with a chimeric G-protein (Gqi5) (provided by B. R. Conklin, University of California, San Francisco) using Lipofectamine 2000. rM1, hM1, rM3, hM3, rM5, and hM5 cells were grown in Ham's F-12 medium containing 10% heat-inactivated fetal bovine serum (FBS), 20 mM HEPES, and 50 μg/mL G418 sulfate. rM2-Gqi5, hM2-Gqi5, and hM4-Gqi5 cells were grown in the same medium also containing 500 μg/mL Hygromycin B. Stable rM4-Gqi5 cells were grown in DMEM containing 10% heat-inactivated FBS, 20 mM HEPES, 400 μg/mL G418 sulfate, and 500 μg/mL Hygromycin B.
For high throughput measurement of agonist-evoked increases in intracellular calcium, CHO-K1 cells stably expressing muscarinic receptors were plated in growth medium lacking G418 and hygromycin at 15,000 cells/20 μL/well in Greiner 384-well black-walled, tissue culture (TC)-treated, clear-bottom plates (VWR). Cells were incubated overnight at 37° C. and 5% CO2. The next day, cells were washed using an ELX 405 (BioTek) with four washes (80 μL) of assay buffer then aspirated to 20 μL. Next, 20 μL of 16 μM Fluo-4/acetoxymethyl ester (Invitrogen, Carlsbad, Calif.) prepared as a 2.3 mM stock in DMSO and mixed in a 1:1 ratio with 10% (w/v) Pluronic F-127 and diluted in assay buffer was added to the wells and the cell plates were incubated for 50 min at 37° C. and 5% CO2. Dye was removed by washing with the ELX 405 (four 80 μL washes of assay buffer) then aspirated to 20 μL. Compound master plates were formatted in an 11 point CRC format (1:3 dilutions) in 100% DMSO with a starting concentration of 10 mM using the BRAVO liquid handler (Agilent). Test compound CRCs were then transferred to daughter plates (240 nL) using the Echo acoustic plate reformatter (Labcyte, Sunnyvale, Calif.) and then diluted into assay buffer (40 μL) to a 2× stock using a Thermo Fisher Combi (Thermo Fisher Scientific, Waltham, Mass.).
Calcium flux was measured using the Functional Drug Screening System (FDSS) 6000 (Hamamatsu Corporation, Tokyo, Japan) as an increase in the fluorescent static ratio. Compounds were applied to cells (20 μL, 2×) using the automated system of the FDSS 6000 at 4 s into the 300 s protocol and the data were collected at 1 Hz. At 144 s into the 300s protocol, 10 μL of an EC20 concentration of the muscarinic receptor agonist acetylcholine was added (5×), followed by the addition of 12 μL an EC80 concentration of acetylcholine at the 230 s time point (5×). Agonist activity was analyzed as a concentration-dependent increase in calcium mobilization upon compound addition. Emax values for agonist activity are expressed relative to the maximum for acetylcholine. Positive allosteric modulator activity was analyzed as a concentration-dependent increase in the EC20 acetylcholine response. Antagonist activity was analyzed as a concentration-dependent decrease in the EC80 acetylcholine response. Concentration-response curves were generated using a four-parameter logistical equation in XLfit curve fitting software (IDBS, Bridgewater, N.J.) for Excel (Microsoft, Redmond, Wash.) or Prism (GraphPad Software, Inc., San Diego, Calif.). […]
Background: A change in cytosolic calcium serves as a functional read-out for many receptors and channels.

SMILES strings stand for the structures.

As usually defined, the EC50 is the midpoint of the concentration-response curve. For orientation: Emax means the maximal effect, on the per cent scale that the assay sets. `Cn1ccc(-c2cc(F)c(Cc3cc(C(=O)N[C@H]4CCOC[C@@H]4O)c4nccn4c3)c(F)c2)n1` [compound 38, 6-[[2,6-difluoro-4-(1-methylpyrazol-3-yl)phenyl]methyl]-N-[(3R,4S)-3-hydroxytetrahydropyran-4-yl]imidazo[1,2-a]pyridine-8-carboxamide]: the EC50 turned out to be 507 nM and the Emax came out at 69%.
In the case of `Cn1ccc(-c2cc(F)c(Cc3cc(C(=O)N[C@H]4CCCC[C@@H]4O)c4nccn4c3)c(F)c2)n1` [compound 39, 6-[[2,6-difluoro-4-(1-methylpyrazol-3-yl)phenyl]methyl]-N-[(1S,2S)-2-hydroxycyclohexyl]imidazo[1,2-a]pyridine-8-carboxamide], the EC50 was 558 nM and the Emax was found to be 58%.
`Cn1cc(-c2cc(F)c(Cc3cc(C(=O)N[C@H]4CCCC[C@@H]4O)c4nccn4c3)c(F)c2)cn1` [compound 40, 6-[[2,6-difluoro-4-(1-methylpyrazol-4-yl)phenyl]methyl]-N-[(1S,2S)-2-hydroxycyclohexyl]imidazo[1,2-a]pyridine-8-carboxamide]: the EC50 is 751 nM and the Emax worked out at 58%.
Take `Cn1ccc(-c2cc(F)c(Cc3cc(C(=O)N[C@H]4CCOC[C@@H]4O)c4ncnn4c3)c(F)c2)n1` [compound 41, 6-[[2,6-difluoro-4-(1-methylpyrazol-3-yl)phenyl]methyl]-N-[(3R,4S)-3-hydroxytetrahydropyran-4-yl]-[1,2,4]triazolo[1,5-a]pyridine-8-carboxamide]: the EC50 is 1200 nM and the Emax came out at 76%.
On to `Cn1ccc(-c2cc(F)c(Cc3cc(C(=O)N[C@H]4CCCC[C@@H]4O)c4ncnn4c3)c(F)c2)n1` [compound 42, 6-[[2,6-difluoro-4-(1-methylpyrazol-3-yl)phenyl]methyl]-N-[(1S,2S)-2-hydroxycyclohexyl]-[1,2,4]triazolo[1,5-a]pyridine-8-carboxamide], for which the EC50 came to 936 nM and the Emax was 83%.
As for `Cn1cc(-c2cc(F)c(Cc3cc(C(=O)N[C@H]4CCOC[C@@H]4O)c4ncnn4c3)c(F)c2)cn1` [compound 43, 6-[[2,6-difluoro-4-(1-methylpyrazol-4-yl)phenyl]methyl]-N-[(3R,4S)-3-hydroxytetrahydropyran-4-yl]-[1,2,4]triazolo[1,5-a]pyridine-8-carboxamide], the EC50 is 691 nM and the Emax stood at 84%.
Take `Cn1cc(-c2cc(F)c(Cc3cc(C(=O)N[C@H]4CCCC[C@@H]4O)c4ncnn4c3)c(F)c2)cn1` [compound 44, 6-[[2,6-difluoro-4-(1-methylpyrazol-4-yl)phenyl]methyl]-N-[(1S,2S)-2-hydroxycyclohexyl]-[1,2,4]triazolo[1,5-a]pyridine-8-carboxamide]: the EC50 was determined as 387 nM and the Emax is 82%.
With `Cn1ccc(-c2ccc(Cc3cc(C(=O)N[C@H]4CCOC[C@@H]4O)c4ncnn4c3)c(F)c2)n1` [compound 45, 6-[[2-fluoro-4-(1-methylpyrazol-3-yl)phenyl]methyl]-N-[(3R,4S)-3-hydroxytetrahydropyran-4-yl]-[1,2,4]triazolo[1,5-a]pyridine-8-carboxamide], the EC50 came to 693 nM and the Emax worked out at 82%.
Take `Cn1ccc(-c2ccc(Cc3cc(C(=O)N[C@H]4CCCC[C@@H]4O)c4ncnn4c3)c(F)c2)n1` [compound 46, 6-[[2-fluoro-4-(1-methylpyrazol-3-yl)phenyl]methyl]-N-[(1S,2S)-2-hydroxycyclohexyl]-[1,2,4]triazolo[1,5-a]pyridine-8-carboxamide]: the EC50 worked out at 742 nM and the Emax stood at 79%.
Take `Cn1cc(-c2ccc(Cc3cc(C(=O)N[C@H]4CCOC[C@@H]4O)c4ncnn4c3)c(F)c2)cn1` [compound 47, 6-[[2-fluoro-4-(1-methylpyrazol-4-yl)phenyl]methyl]-N-[(3R,4S)-3-hydroxytetrahydropyran-4-yl]-[1,2,4]triazolo[1,5-a]pyridine-8-carboxamide]: the EC50 was determined as 404 nM and the Emax was found to be 77%.
Regarding `Cn1cc(-c2ccc(Cc3cc(C(=O)N[C@H]4CCCC[C@@H]4O)c4ncnn4c3)c(F)c2)cn1` [compound 48, 6-[[2-fluoro-4-(1-methylpyrazol-4-yl)phenyl]methyl]-N-[(1S,2S)-2-hydroxycyclohexyl]-[1,2,4]triazolo[1,5-a]pyridine-8-carboxamide], the EC50 was determined as 229 nM and the Emax came out at 76%.
The matching figures for `Cn1cc(-c2cc(F)c(Cc3cc(C(=O)N[C@H]4CCOC[C@@H]4O)c4nccn4c3)c(F)c2)cn1` [compound 49, 6-[[2,6-difluoro-4-(1-methylpyrazol-4-yl)phenyl]methyl]-N-[(3R,4S)-3-hydroxytetrahydropyran-4-yl]imidazo[1,2-a]pyridine-8-carboxamide]: 474 nM and 67%.
The matching figures for `Cc1c(Cc2ccc(-c3ccn(C)n3)cc2)cc(C(=O)N[C@H]2CCOC[C@@H]2O)c2nccn12` [compound 50, N-[(3R,4S)-3-hydroxytetrahydropyran-4-yl]-5-methyl-6-[[4-(1-methylpyrazol-3-yl)phenyl]methyl]imidazo[1,2-a]pyridine-8-carboxamide]: 24.6 nM and 53%.
The matching figures for `Cc1c(Cc2ccc(-c3ccn(C)n3)cc2)cc(C(=O)N[C@H]2CCCC[C@@H]2O)c2nccn12` [compound 51, N-[(1S,2S)-2-hydroxycyclohexyl]-5-methyl-6-[[4-(1-methylpyrazol-3-yl)phenyl]methyl]imidazo[1,2-a]pyridine-8-carboxamide]: 138 nM and 59%.
With `Cn1ccc(-c2ccc(Cc3cc(C(=O)N[C@H]4CCCC[C@@H]4O)c4nccn4c3)c(F)c2)n1` [compound 52, 6-[[2-fluoro-4-(1-methylpyrazol-3-yl)phenyl]methyl]-N-[(1S,2S)-2-hydroxycyclohexyl]imidazo[1,2-a]pyridine-8-carboxamide], the EC50 turned out to be 414 nM and the Emax worked out at 70%.
Regarding `Cn1ccc(-c2ccc(Cc3cc(C(=O)N[C@H]4CCOC[C@@H]4O)c4nccn4c3)c(F)c2)n1` [compound 53, 6-[[2-fluoro-4-(1-methylpyrazol-3-yl)phenyl]methyl]-N-[(3R,4S)-3-hydroxytetrahydropyran-4-yl]imidazo[1,2-a]pyridine-8-carboxamide], the EC50 amounted to 249 nM and the Emax was 66%.
Consider `Cn1cc(-c2ccc(Cc3cc(C(=O)N[C@H]4CCCC[C@@H]4O)c4nccn4c3)c(F)c2)cn1` [compound 54, 6-[[2-fluoro-4-(1-methylpyrazol-4-yl)phenyl]methyl]-N-[(1S,2S)-2-hydroxycyclohexyl]imidazo[1,2-a]pyridine-8-carboxamide], for which the EC50 stood at 217 nM and the Emax was determined as 70%.
